A short description of the experiment: Inhibition of SMYD2 (unknown origin) expressed in human U2OS cells assessed as reduction in cell count incubated for 24 hrs by DAPI staining based assay.

The results in this text go back to BindingDB's records for doi:10.1021/acs.jmedchem.6b01303 (Astrazeneca, 2016).

As to `N#Cc1cc(C(=O)NCCCN2CCCC2)cc(-c2ccccc2N2CCN(CCc3ccc(Cl)c(Cl)c3)CC2)c1`, the half-maximal inhibitory concentration (IC50) was 5 µM.

In the case of `O=C(NCCCN1CCCC1)c1cncc(-c2ccccc2N2CCN(CCc3c[nH]c4ccccc34)CC2)c1`, the IC50 worked out at 13.3 µM.
